Experimental data published in patent US20060183803A1, “L-aspartic acid for the treatment of assorted health problems” (Instituto del Metabolismo Celular, S.L., priority 2005, published 2006).

Assays:
[1] = Digestion problems of patients under treatment; format: in vivo, human; details: more than three hundred patients, after two or three weeks
[2] = Ketosis in patients under treatment
[3] = Clinical trial in patients suffering from hypertension; format: in vivo, human
Text: Clinical trials for 250 patients suffering from hypertension (156 men and 94 women, with ages between 19 and 70 years) are reported below.
A summary of our clinical results are shown in Table 3 for average daily L-aspartic acid consumptions of 12 g/day (four daily 3 g doses).

[4] = Clinical trial in type-1 and type-2 diabetes patients; format: in vivo, human
Text: There is, in principle, no special protocol for patients suffering from diabetes (both types), which is different from the general one described above. Type-2 diabetes is usually associated with overweight and/or excess of fat in the body, so its protocol should not differ substantially from the general one presented above. With regard to type-I diabetes, since this treatment allows cells to consume less glucose, as it enhances their capacity to consume fat, it can reduce one's insulin dependence.
Diabetic patients were told to take their values of blood glucose regularly (three or four times a day during the first months) until they achieved good blood glucose values. During the treatment, when it was seen that blood glucose levels were decreasing, the patients were instructed to reduce the doses of drugs or insulin, until removing them completely, to avoid hypoglycemia.
Our clinical trails involved a group of 200 patients, […]. The patients were divided into four groups: (i) Type-2 diabetes patients who had been recently diagnosed and were not yet taking any oral drugs or insulin treatments, (ii) Type-2 diabetes patients who had been taking oral drugs (usually sulphonylurea derivatives) for up to several years, (iii) Type-2 diabetes patients who were suffering for many years, and had started their treatment with oral drugs and, after several years, progressed to insulin injections, which were eventually being supplemented with oral drugs, and (iv) Type-1 diabetes patients, all of them under insulin treatment. Most of these patients were also suffering from other related health problems (e.g., overweight or obesity, hypertension, sexual potency problems).
The basic treatment guidelines for these diabetes patients were essentially the same as that which was indicated above for our obesity and overweight patients (i.e., four daily takings of 1-3 grams of L-aspartic acid and the elimination of starches from one's diet).

[5] = Sexual potency problems of male patients under treatment; format: in vivo, human; details: after 2-3 months of treatment
Text: A number of the male patients in our trails initially complained of erectile disfunction and other sexual performance problems. […] These improvements were most significant for those patients who had reported problems of erectile disfunction; with these patients generally reporting improvements in all aspects of their sexual activities, including their sexual appetency and ability to ejaculate.

[6] = Clinical trial in non-diabetic patients with blood cholesterol excess; format: in vivo, human; details: more than 200 non-diabetic patients, four daily takings of 1-3 grams
Text: These clinical trials included a group of more than 200 non-diabetic patients with blood cholesterol excesses. The basic treatment (i.e., four daily […] of 1-3 grams of L-aspartic acid and the elimination of starches from one's diet) for these patients was the same as that described above, plus: (i) complete elimination of carbohydrates from the diet, (ii) inclusion of unsaturated and polyunsaturated fat in all meals, and (iii) inclusion in some meals of cholesterol.

[7] = Migraines, headaches and menstrual pains reported by patients under treatment; format: in vivo, human; details: improvement in first or second month, in some cases several months
[8] = Clinical trial of L-aspartic acid plus starch-free diet in obesity and overweight
[9] = Patients with high blood uric acid levels under treatment; format: in vivo, human; details: sixty patients
Procedure: Sixty patients participating in this program had high blood uric acid levels.
Our treatment achieved a significant decrease in the uric acid levels of these patients: from initial levels of between 7.1 and 9.4 mg/100 mL to, after usually 2-4 months treatment, normal values.

[10] = Tobacco, caffeine and other drug addictions in patients under treatment; format: in vivo, human
Text: For the treatment of tobacco addiction, we found it advisable to increase the frequency of the intake of L-aspartic acid to 10-12 small doses per day in order to control the anxiety to smoke.
In our clinical trials, some of our patients were addicted to some soft drugs like coffee (caffeine), tobacco (nicotine), Prozac (fluoxetin), Trankimazin (alprazolam), Tranxilium (di-potasium chloride-acetate). In general, they were able to reduce their consumption of these materials while undergoing our recommended treatments. […] In tobacco release addiction programs, some small supplementary doses (0.5-1.0 g. every 30-45 minutes) may be necessary during the day to stop the patient's anxiety.
Smoking patients who expressed a desire to stop were advised to prepare a small bottle of water (or even fruit juice) with some small spoonfuls of L-aspartic acid, and to drink some small swigs of this throughout the day to control their anxiety levels.

Structure (SMILES): N[C@@H](CC(=O)O)C(=O)O [L-aspartic acid]
- digestion problems [1]: almost total resolution of their digestion problems
- occurrence of ketosis under treatment ([2]; all patients under treatment): None of the patients under our treatment have suffered any kind of ketosis
- blood ketone bodies in patients with signs of ketosis before treatment ([2]; relatively short time after beginning treatments): achieved normal blood concentration of ketone bodies
- reduction in % body fat ([3]; 250 hypertension patients, 12 g/day): approximately 10%
- mean time to attainment of recommended normal blood pressures ([3]; 250 patients, 12 g/day (four daily 3 g doses)): 2.8 months
- reduction of oral drugs and/or insulin injections ([4]; all diabetes patients): able to reduce to some degree their oral drugs and/or insulin injections
- glycosylated haemoglobin, cholesterol, tryglycerides and total lipids in blood analysis ([4]; diabetes patients): drastically reduced
- reduction in glycosylated haemoglobin levels ([4]; diabetes patients, over the duration of treatment): ≥ 20%
- time to change from insulin injections to oral diabetes drugs ([4]; most type-2 patients receiving insulin injections): 1-2 months
- reduction in glycosylated haemoglobin level, single patient ([4]; patient Example 32 in Table 2): 38.05%
- onset of improvement in glycemia levels ([4]; two type-2 patients (FIGS. 6 and 7)): clear from the first week of treatment
- time to good control of glycemia and discontinuing diabetes medications ([4]; two type-2 patients (FIGS. 6 and 7), diabetes for over 10 years): 1-2 months
- reduction in insulin dosages ([4]; type-1 diabetes patients, over periods of 3-12 months): 20-30%
- erectile disfunction and other sexual performance problems [5]: significant diminishments of their problems
- blood cholesterol, tryglycerides and total lipid levels [6]: clear improvement
- number of patients reporting migraines, headaches and menstrual pains [7]: significant reduction
- safety of prolonged treatment (blood chemical analysis) ([8]; duration as long as one wants): without danger of intoxication
- fat burnt per day ([8]; estimated from water unloaded, ratio 14/18): 200 to 600 g
- biochemical and hematological parameters in periodic blood analysis ([8]; human, in vivo): consistently showed improvements
- side effect from reduced drinking ([8]; in some cases): hard stools and difficulty with bowel movements
- weight loss outcome ([8]; more than 1,500 patients, ages 18 to 83): Successful weight losses in all cases
- usual weight loss rate ([8]; obesity patients, also printed as 11-13 pounds per month): 5-6 kg per month
- carbohydrate abstinence syndrome (weakness, feeling sick) ([8]; on elimination of carbohydrate-rich foods): only during their first two weeks of participation
- fat as percentage of body mass after treatment ([8]; person (FIG. 5), 41.1% at start, after 290 days): 23%
- body fat mass after treatment ([8]; person (FIG. 5), 53.5 kg of fat at start, after 290 days): 19.1 kg
- body weight after treatment ([8]; person (FIG. 5), 130 kg at start, after 290 days of treatment): 83 kg
- weight reduction ([8]; person (FIG. 5), after 290 days of treatment): 47 kg
- change in percentage of body fat ([8]; versus conventional hypocaloric diets): significant reductions in our patients' percentages of body fat
- anxiety, hunger pangs or energy loss during treatment ([8]; without sedative or stimulant drug): no significant anxiety, hunger pangs or energy loss
- blood uric acid level after treatment ([9]; initial levels between 7.1 and 9.4 mg/100 mL): normal values
- treatment time to normal uric acid values ([9]; usually): 2-4 months
- daily number of cigarettes smoked ([10]; most tobacco-addicted patients interested in ceasing, after 2-4 weeks): able to reduce their daily numbers of cigarettes smoked
- caffeine addiction ([10]; patients consuming 8-12 daily coffees or caffeine soft drinks): drastically eliminate this dependence in only a few weeks
- smoking cessation ([10]; patients wishing to stop, small swigs through the day, after several weeks): all of these patients had ceased smoking
